Test results taken from the OligoGym collection.
HELM strings list units from the 5' end as sugar, base in round brackets, then linkage (d deoxyribose, r ribose, m 2'-O-methyl, p phosphodiester). Strings are as the collection lists them; they lack the last nucleoside at the 3' end of the tested compound. [moe] = 2'-O-(2-methoxyethyl) (MOE); [sp] = phosphorothioate linkage; [m5C] = 5-methylcytosine

Molecular target: APP
Experiment: mouse, dose not given
Details: ASO

**Q.** With “RNA1{[moe]([m5C])[sp].[moe](T)p.[moe](T)p.[moe](T)p.[moe](T)[sp].d(G)[sp].d(T)[sp].d(A)[sp].d(T)[sp].d([m5C])[sp].d(A)[sp].d(T)[sp].d(A)[sp].d(A)[sp].d(A)[sp].[moe](T)p.[moe](G)p.[moe](A)[sp].[moe](A)}$$$$ (last 3' nucleoside missing)” as the substance, how does the 3 h FOB score read?
**A.** 0.5 score 0-7

**Q.** “RNA1{[moe](G)[sp].[moe](G)p.[moe](A)p.[moe](A)p.[moe]([m5C])[sp].d(T)[sp].d([m5C])[sp].d(G)[sp].d(A)[sp].d(A)[sp].d([m5C])[sp].d([m5C])[sp].d(A)[sp].d([m5C])[sp].d([m5C])[sp].[moe](T)p.[moe]([m5C])p.[moe](T)[sp].[moe](T)}$$$$ (last 3' nucleoside missing)” was tested. Which 3 h FOB score did it give?
**A.** 2.5 score 0-7

**Q.** How did the 3 h FOB score turn out when “RNA1{[moe](A)[sp].[moe](T)p.[moe](T)p.[moe]([m5C])p.[moe](T)[sp].d([m5C])[sp].d(T)[sp].d(T)[sp].d(A)[sp].d(T)[sp].d(A)[sp].d(T)[sp].d(T)[sp].d([m5C])[sp].d([m5C])[sp].[moe](T)p.[moe](T)p.[moe](A)[sp].[moe]([m5C])}$$$$ (last 3' nucleoside missing)” was run?
**A.** 0.5 score 0-7

**Q.** Which 3 h FOB score does the source give for “RNA1{[moe]([m5C])[sp].[moe](T)p.[moe]([m5C])p.[moe](T)p.[moe]([m5C])p.[moe](A)[sp].d(T)[sp].d(A)[sp].d(G)[sp].d(T)[sp].d([m5C])[sp].d(T)[sp].d(T)[sp].d(A)[sp].d(A)[sp].d(T)[sp].[moe](T)p.[moe]([m5C])[sp].[moe]([m5C])}$$$$ (last 3' nucleoside missing)” here?
**A.** 0.75 score 0-7

**Q.** Which 3 h FOB score does the source give for “RNA1{[moe]([m5C])[sp].[moe](T)p.[moe](T)p.[moe]([m5C])p.[moe](T)[sp].d(T)[sp].d(A)[sp].d(T)[sp].d([m5C])[sp].d(A)[sp].d(G)[sp].d([m5C])[sp].d(T)[sp].d(T)[sp].d(T)[sp].[moe](A)p.[moe](G)p.[moe](G)[sp].[moe]([m5C])}$$$$ (last 3' nucleoside missing)” here?
**A.** 1 score 0-7

**Q.** Which 3 h FOB score does the source give for “RNA1{[moe](A)[sp].[moe](A)p.[moe](G)p.[moe](G)p.[moe](G)[sp].d([m5C])[sp].d(A)[sp].d(T)[sp].d([m5C])[sp].d(A)[sp].d([m5C])[sp].d(T)[sp].d(T)[sp].d(A)[sp].d([m5C])[sp].[moe](A)p.[moe](A)p.[moe](A)[sp].[moe]([m5C])}$$$$ (last 3' nucleoside missing)” here?
**A.** 0 score 0-7

**Q.** Which 3 h FOB score does the source give for “RNA1{[moe](G)[sp].[moe]([m5C])p.[moe](T)p.[moe](T)p.[moe](A)[sp].d([m5C])[sp].d(A)[sp].d(T)[sp].d([m5C])[sp].d(A)[sp].d(T)[sp].d(T)[sp].d(T)[sp].d(T)[sp].d([m5C])[sp].[moe](T)p.[moe](T)p.[moe](G)[sp].[moe]([m5C])}$$$$ (last 3' nucleoside missing)” here?
**A.** 0 score 0-7

**Q.** For “RNA1{[moe](A)[sp].[moe](T)p.[moe](A)p.[moe](T)p.[moe](T)p.[moe](T)p.d(G)[sp].d(T)[sp].d([m5C])[sp].d(A)[sp].d(A)[sp].d([m5C])[sp].d([m5C])[sp].d([m5C])[sp].d(A)[sp].d(G)[sp].[moe](A)p.[moe](A)[sp].[moe]([m5C])}$$$$ (last 3' nucleoside missing)”, which 3 h FOB score is on record?
**A.** 1 score 0-7

**Q.** How did the 3 h FOB score turn out when “RNA1{[moe](G)[sp].[moe]([m5C])p.[moe](A)p.[moe](T)p.[moe](T)p.[moe]([m5C])[sp].d(T)[sp].d([m5C])[sp].d(T)[sp].d(T)[sp].d(A)[sp].d(T)[sp].d(A)[sp].d(T)[sp].d(T)[sp].d([m5C])[sp].[moe]([m5C])p.[moe](T)[sp].[moe](T)}$$$$ (last 3' nucleoside missing)” was run?
**A.** 1.25 score 0-7

**Q.** With “RNA1{[moe](G)[sp].[moe](A)p.[moe](T)p.[moe]([m5C])p.[moe](T)[sp].d(G)[sp].d(A)[sp].d(A)[sp].d(T)[sp].d([m5C])[sp].d([m5C])[sp].d([m5C])[sp].d(A)[sp].d([m5C])[sp].d(T)[sp].[moe](T)p.[moe]([m5C])p.[moe]([m5C])[sp].[moe]([m5C])}$$$$ (last 3' nucleoside missing)” as the substance, how does the 3 h FOB score read?
**A.** 0 score 0-7

**Q.** For “RNA1{[moe](T)[sp].[moe]([m5C])p.[moe](T)p.[moe](T)p.[moe](G)[sp].d(A)[sp].d(T)[sp].d(A)[sp].d(T)[sp].d(T)[sp].d(T)[sp].d(G)[sp].d(T)[sp].d([m5C])[sp].d(A)[sp].[moe](A)p.[moe]([m5C])p.[moe]([m5C])[sp].[moe]([m5C])}$$$$ (last 3' nucleoside missing)”, which 3 h FOB score is on record?
**A.** 5 score 0-7

**Q.** “RNA1{[moe](T)[sp].[moe](T)p.[moe](G)p.[moe](T)p.[moe](A)[sp].d(G)[sp].d(G)[sp].d(A)[sp].d(A)[sp].d([m5C])[sp].d(T)[sp].d([m5C])[sp].d(G)[sp].d(A)[sp].d(A)[sp].[moe]([m5C])p.[moe]([m5C])p.[moe](A)[sp].[moe]([m5C])}$$$$ (last 3' nucleoside missing)” was tested. Which 3 h FOB score did it give?
**A.** 2 score 0-7

**Q.** How did the 3 h FOB score turn out when “RNA1{[moe](A)[sp].[moe](T)p.[moe](G)p.[moe]([m5C])p.[moe](A)[sp].d(T)[sp].d([m5C])[sp].d(A)[sp].d(A)[sp].d(T)[sp].d(T)[sp].d([m5C])[sp].d([m5C])[sp].d(T)[sp].d(T)[sp].[moe](T)p.[moe](G)p.[moe](G)[sp].[moe](G)}$$$$ (last 3' nucleoside missing)” was run?
**A.** 0 score 0-7

**Q.** With “RNA1{[moe](G)[sp].[moe](T)p.[moe](T)p.[moe](T)p.[moe](A)p.[moe]([m5C])[sp].d([m5C])[sp].d(T)[sp].d(T)[sp].d(T)[sp].d(A)[sp].d(A)[sp].d([m5C])[sp].d(A)[sp].d(T)[sp].d(T)[sp].[moe]([m5C])p.[moe]([m5C])[sp].[moe](T)}$$$$ (last 3' nucleoside missing)” as the substance, how does the 3 h FOB score read?
**A.** 2.75 score 0-7

**Q.** For “RNA1{[moe]([m5C])[sp].[moe](A)p.[moe](T)p.[moe](G)p.[moe]([m5C])[sp].d(G)[sp].d([m5C])[sp].d(T)[sp].d([m5C])[sp].d(A)[sp].d(T)[sp].d(A)[sp].d(A)[sp].d(A)[sp].d(T)[sp].[moe]([m5C])p.[moe](A)p.[moe]([m5C])[sp].[moe](A)}$$$$ (last 3' nucleoside missing)”, which 3 h FOB score is on record?
**A.** 3.5 score 0-7

**Q.** Which 3 h FOB score does the source give for “RNA1{[moe](T)[sp].[moe](T)p.[moe](T)p.[moe](G)p.[moe]([m5C])[sp].d(T)[sp].d(A)[sp].d([m5C])[sp].d(T)[sp].d(T)[sp].d(G)[sp].d(A)[sp].d(T)[sp].d(A)[sp].d(A)[sp].[moe](T)p.[moe]([m5C])p.[moe]([m5C])[sp].[moe](T)}$$$$ (last 3' nucleoside missing)” here?
**A.** 1 score 0-7

**Q.** For “RNA1{[moe](A)[sp].[moe](T)p.[moe](G)p.[moe](T)p.[moe](G)p.[moe](A)[sp].d(T)[sp].d(T)[sp].d(T)[sp].d([m5C])[sp].d(A)[sp].d([m5C])[sp].d(T)[sp].d(A)[sp].d(A)[sp].d([m5C])[sp].[moe]([m5C])p.[moe](G)[sp].[moe](G)}$$$$ (last 3' nucleoside missing)”, which 3 h FOB score is on record?
**A.** 0 score 0-7

**Q.** “RNA1{[moe](T)[sp].[moe]([m5C])p.[moe]([m5C])p.[moe]([m5C])p.[moe](A)[sp].d(T)[sp].d(A)[sp].d([m5C])[sp].d(A)[sp].d(T)[sp].d(G)[sp].d(A)[sp].d(T)[sp].d(T)[sp].d(T)[sp].[moe](T)p.[moe](A)p.[moe](G)[sp].[moe](G)}$$$$ (last 3' nucleoside missing)” was tested. Which 3 h FOB score did it give?
**A.** 1.25 score 0-7

**Q.** “RNA1{[moe](G)[sp].[moe](A)p.[moe](T)p.[moe]([m5C])p.[moe](T)p.[moe](G)p.d(A)[sp].d(A)[sp].d(T)[sp].d([m5C])[sp].d([m5C])[sp].d([m5C])[sp].d(A)[sp].d([m5C])[sp].d(T)[sp].d(T)[sp].[moe]([m5C])p.[moe]([m5C])[sp].[moe]([m5C])}$$$$ (last 3' nucleoside missing)” was tested. Which 3 h FOB score did it give?
**A.** 0 score 0-7

**Q.** “RNA1{[moe](G)[sp].[moe](T)p.[moe](A)p.[moe]([m5C])p.[moe](T)[sp].d([m5C])[sp].d(A)[sp].d(T)[sp].d(T)[sp].d(T)[sp].d(T)[sp].d(T)[sp].d(G)[sp].d(T)[sp].d(T)[sp].[moe]([m5C])p.[moe](T)p.[moe](T)[sp].[moe](A)}$$$$ (last 3' nucleoside missing)” was tested. Which 3 h FOB score did it give?
**A.** 0.67 score 0-7

**Q.** How did the 3 h FOB score turn out when “RNA1{[moe](A)[sp].[moe](G)p.[moe]([m5C])p.[moe](T)p.[moe](T)[sp].d(A)[sp].d([m5C])[sp].d(A)[sp].d(T)[sp].d([m5C])[sp].d(A)[sp].d(T)[sp].d(T)[sp].d(T)[sp].d(T)[sp].[moe]([m5C])p.[moe](T)p.[moe](T)[sp].[moe](G)}$$$$ (last 3' nucleoside missing)” was run?
**A.** 1 score 0-7

**Q.** For “RNA1{[moe](T)[sp].[moe](G)p.[moe](G)p.[moe](T)p.[moe](A)[sp].d([m5C])[sp].d(T)[sp].d(A)[sp].d(T)[sp].d(T)[sp].d(T)[sp].d([m5C])[sp].d(T)[sp].d(A)[sp].d(A)[sp].[moe](G)p.[moe](G)p.[moe](A)[sp].[moe](A)}$$$$ (last 3' nucleoside missing)”, which 3 h FOB score is on record?
**A.** 0.33 score 0-7

**Q.** With “RNA1{[moe]([m5C])[sp].[moe]([m5C])p.[moe](T)p.[moe](T)p.[moe](T)[sp].d([m5C])[sp].d(A)[sp].d(A)[sp].d(T)[sp].d(A)[sp].d(T)[sp].d(T)[sp].d(G)[sp].d(T)[sp].d(T)[sp].[moe]([m5C])p.[moe](T)p.[moe](T)[sp].[moe]([m5C])}$$$$ (last 3' nucleoside missing)” as the substance, how does the 3 h FOB score read?
**A.** 3.33 score 0-7

**Q.** How did the 3 h FOB score turn out when “RNA1{[moe](A)[sp].[moe](G)p.[moe]([m5C])p.[moe](A)p.[moe](T)[sp].d([m5C])[sp].d(T)[sp].d(T)[sp].d(T)[sp].d(T)[sp].d(A)[sp].d([m5C])[sp].d(T)[sp].d(A)[sp].d(T)[sp].[moe]([m5C])p.[moe](T)p.[moe](G)[sp].[moe]([m5C])}$$$$ (last 3' nucleoside missing)” was run?
**A.** 0.67 score 0-7

**Q.** Which 3 h FOB score does the source give for “RNA1{[moe]([m5C])[sp].[moe](G)p.[moe](T)p.[moe](G)p.[moe](T)[sp].d(G)[sp].d(T)[sp].d(A)[sp].d(T)[sp].d([m5C])[sp].d([m5C])[sp].d(T)[sp].d([m5C])[sp].d(T)[sp].d(T)[sp].[moe](A)p.[moe](A)p.[moe](T)[sp].[moe](T)}$$$$ (last 3' nucleoside missing)” here?
**A.** 1 score 0-7

**Q.** How did the 3 h FOB score turn out when “RNA1{[moe](T)[sp].[moe](T)p.[moe]([m5C])p.[moe](A)p.[moe]([m5C])[sp].d(A)[sp].d(G)[sp].d(T)[sp].d(T)[sp].d(T)[sp].d(A)[sp].d([m5C])[sp].d([m5C])[sp].d([m5C])[sp].d([m5C])[sp].[moe](A)p.[moe](A)p.[moe](G)[sp].[moe]([m5C])}$$$$ (last 3' nucleoside missing)” was run?
**A.** 0 score 0-7
